# In BindingDB's records for doi:10.1016/j.bmcl.2018.05.027 (Bristol-Myers Squibb Research and Development, 2018):
# How the values were obtained:
# [1] = Inhibition of HIV-1 integrase strand transfer activity assessed as reduction in viral replication in presence of 10% fetal bovine serum
# [2] = Inhibition of HIV-1 integrase strand transfer activity assessed as reduction in viral replication in presence of 10% fetal bovine serum and 15 mg/mL human serum albumin
# [3] = Inhibition of HIV-1 integrase strand transfer activity assessed as reduction in viral replication in presence of 40% human serum
EC50 [1],EC50 [2],EC50 [3],Structure (SMILES)
53 nM,857 nM,,CC1(C)OCCn2c1nc(C(=O)NCc1ccc(F)cc1Cl)c(O)c2=O
3 nM,27 nM,,CN(C)S(=O)(=O)c1cc(F)ccc1CNC(=O)c1nc2n(c(=O)c1O)CCCC21CCCC1
2 nM,3 nM,,CNC(=O)c1cc(F)ccc1CNC(=O)c1nc2n(c(=O)c1O)CCOC2(C)C
2 nM,84 nM,,CC1(C)OCCn2c1nc(C(=O)NCc1ccc(F)c(Cl)c1)c(O)c2=O
2 nM,7 nM,,CC1(C)OCCn2c1nc(C(=O)NCc1ccc(F)cc1N1CCCCS1(=O)=O)c(O)c2=O
21 nM,557 nM,,Cc1cc(F)ccc1CNC(=O)c1nc2n(c(=O)c1O)CCOC2(C)C
2 nM,17 nM,25 nM,CC1(C)OCCn2c1nc(C(=O)NCc1ccc(F)cc1)c(O)c2=O
3 nM,6 nM,,CC1(C)OCCn2c1nc(C(=O)NCc1ccc(F)cc1S(C)(=O)=O)c(O)c2=O
2 nM,19 nM,,O=C(NCc1ccc(F)cc1)c1nc2n(c(=O)c1O)CCCC21CCCC1
5 nM,149 nM,,Cc1cc(CNC(=O)c2nc3n(c(=O)c2O)CCCC32CCCC2)ccc1F
3 nM,14 nM,,O=C(NCc1ccc(F)cc1S(=O)(=O)N1CCOCC1)c1nc2n(c(=O)c1O)CCCC21CCCC1
1 nM,90 nM,,Cc1cc(CNC(=O)c2nc3n(c(=O)c2O)CCOC3(C)C)ccc1F
2 nM,19 nM,,CC1(C)OCCn2c1nc(C(=O)NCc1ccc(F)cc1N1CCOCC1)c(O)c2=O
2 nM,21 nM,,O=C(NCc1ccc(F)cc1N1CCCCS1(=O)=O)c1nc2n(c(=O)c1O)CCCC21CCCC1
1 nM,8 nM,,CS(=O)(=O)c1cc(F)ccc1CNC(=O)c1nc2n(c(=O)c1O)CCCC21CCCC1
3 nM,12 nM,,CN(C)S(=O)(=O)c1c(CNC(=O)c2nc3n(c(=O)c2O)CCOC3(C)C)ccc(F)c1F
